Consider five molecules from patent publication US6747164B2, “Use of amine compounds with improved biodegradability as adjuvants for pesticides and fertilizers” (priority 2000, dated 2004).

Several values for one entry are separate records, joined by “and”; a condition that tells them apart may be missing. Identical values can stand only once.

Common to all, as to assay type: in vivo
The subject of experiment [1] is Brassica napus. Kind of experiment: Greenhouse test of glyphosate/adjuvant formulations with Brassica napus.
Experiment [2] relates to Lolium rigidum. Description: Greenhouse test of glyphosate/adjuvant formulations with Lolium rigidum.
Experiment [3] has as its system Elymus repens. Kind of experiment: Greenhouse test of glyphosate/adjuvant formulations with Elymus repens.
The mark [4] stands for this setting: Example 2, Table 4, glyphosate 0.75 kg a.e./ha, glyphosate/adjuvant 2:1, 4 weeks after spraying.

Regarding `CCCCC(CC)COC1OC(CO)C(O)C(O)C1O` (centres unmarked) [2-ethylhexyl glucoside, reference compound], the Effect in experiment [1] (setting [4]) is 63%.
“Cocoamide of N,N-bishydroxyethyl-1,3-propylenediamine”: the Effect in experiment [1] (Example 2, Table 4, glyphosate 0.15 kg a.e./ha, glyphosate/adjuvant 2:1, 4 weeks after spraying) was 40%; in experiment [1] (Example 2, Table 4, glyphosate 0.15 kg a.e./ha, glyphosate/adjuvant 5:1, 4 weeks after spraying) it was 8%; in experiment [1] (Example 2, Table 4, glyphosate 0.25 kg a.e./ha, glyphosate/adjuvant 2:1, 4 weeks after spraying), 70%; in experiment [1] (Example 2, Table 4, glyphosate 0.25 kg a.e./ha, glyphosate/adjuvant 5:1, 4 weeks after spraying), 73%; in experiment [1] (setting [4]), 98%; in experiment [1] (Example 2, Table 4, glyphosate 0.75 kg a.e./ha, glyphosate/adjuvant 5:1, 4 weeks after spraying), 87%. The Effect in experiment [1] (Example 3, Table 7, glyphosate 0.15 kg a.e./ha, glyphosate/adjuvant 2:1, 4 weeks after spraying) stood at 45%; in experiment [1] (Example 3, Table 7, glyphosate 0.25 kg a.e./ha, glyphosate/adjuvant 2:1, 4 weeks after spraying) it was 52%; in experiment [1] (Example 3, Table 7, glyphosate 0.75 kg a.e./ha, glyphosate/adjuvant 2:1, 4 weeks after spraying), 90%; in experiment [2] (Example 2, Table 5, glyphosate 0.08 kg a.e./ha, glyphosate/adjuvant 2:1, 4 weeks after spraying), 57%; in experiment [2] (Example 2, Table 5, glyphosate 0.08 kg a.e./ha, glyphosate/adjuvant 5:1, 4 weeks after spraying), 23%; in experiment [2] (Example 2, Table 5, glyphosate 0.15 kg a.e./ha, glyphosate/adjuvant 2:1, 4 weeks after spraying), 78%. Besides, the Effect in experiment [2] (Example 2, Table 5, glyphosate 0.15 kg a.e./ha, glyphosate/adjuvant 5:1, 4 weeks after spraying) was 72%; in experiment [2] (Example 2, Table 5, glyphosate 0.25 kg a.e./ha, glyphosate/adjuvant 2:1, 4 weeks after spraying), 97%; in experiment [2] (Example 2, Table 5, glyphosate 0.25 kg a.e./ha, glyphosate/adjuvant 5:1, 4 weeks after spraying) it was 88%; in experiment [2] (Example 3, Table 8, glyphosate 0.08 kg a.e./ha, glyphosate/adjuvant 2:1, 4 weeks after spraying), 40%; in experiment [2] (Example 3, Table 8, glyphosate 0.15 kg a.e./ha, glyphosate/adjuvant 2:1, 4 weeks after spraying), 58%; in experiment [2] (Example 3, Table 8, glyphosate 0.25 kg a.e./ha, glyphosate/adjuvant 2:1, 4 weeks after spraying), 93%. For the same molecule, the Effect in experiment [3] (Example 2, Table 3, glyphosate 0.15 kg a.e./ha, glyphosate/adjuvant 2:1, 5 weeks after spraying, 100% = totally dead plant) was 13%; in experiment [3] (Example 2, Table 3, glyphosate 0.15 kg a.e./ha, glyphosate/adjuvant 5:1, 5 weeks after spraying) it was 8%; in experiment [3] (Example 2, Table 3, glyphosate 0.25 kg a.e./ha, glyphosate/adjuvant 2:1, 5 weeks after spraying) it was 75%; in experiment [3] (Example 2, Table 3, glyphosate 0.25 kg a.e./ha, glyphosate/adjuvant 5:1, 5 weeks after spraying) it was 65%; in experiment [3] (Example 2, Table 3, glyphosate 0.75 kg a.e./ha, glyphosate/adjuvant 2:1, 5 weeks after spraying) it was 97%; in experiment [3] (Example 2, Table 3, glyphosate 0.75 kg a.e./ha, glyphosate/adjuvant 5:1, 5 weeks after spraying), 95%. Also, the Effect in experiment [3] (Example 3, Table 6, glyphosate 0.15 kg a.e./ha, glyphosate/adjuvant 2:1, 7 weeks after spraying) is 33%; in experiment [3] (Example 3, Table 6, glyphosate 0.25 kg a.e./ha, glyphosate/adjuvant 2:1, 7 weeks after spraying), 47%; in experiment [3] (Example 3, Table 6, glyphosate 0.75 kg a.e./ha, glyphosate/adjuvant 2:1, 7 weeks after spraying), 100%.
On to `CCCCCCOC1OC(CO)C(O)C(O)C1O` (centres unmarked) [Hexyl glucoside, reference compound], for which the Effect in experiment [1] (setting [4]) turned out to be 57%.
Take “Monoester between polyethyleneglycol (2.5 EO)-monococo ether monocarboxymethyl ether and triethanolamine”: the Effect in experiment [2] (in vivo) is 48% and 68% and 88%.
On to “Monoester between polyethyleneglycol (4.5 EO)-monococo ether monocarboxymethyl ether and triethanolamine”, for which the Effect is 58% and 75% and 92% in experiment [1] (in vivo); 52% and 72% and 96% in experiment [2] (in vivo).
